Laboratory results taken from patent US20190231707A1, “TRANSDERMAL DRUG DELIVERY DEVICE FOR DELIVERING OPIOIDS” (CHRONO THERAPEUTICS INC., priority 2016, published 2019).

Test: Average cumulative delivery / flux across cadaver skin
Assay type: in vitro ADME
Conditions: FIG. 15
Text: The prodrug of Naltrexone with the PEG conjugation increased the molecular weight of the compound to be about 690 g/mole. […] The average flux for the Naltrexone was about 15.37 micrograms (μg) per hour per cm^2.

SMILES: O=C1CC[C@@]2(O)[C@H]3Cc4ccc(O)c5c4[C@@]2(CCN3CC2CC2)[C@H]1O5 [Naltrexone]
- average flux across the cadaver skin: about 15.37 micrograms (μg) per hour per cm^2
